One data set deals with mTOR gene. The experiment in a line: mTOR expression after mTOR siRNA and/or STAT3 siRNA transfection of A549, real-time PCR. The format is cell-based, human. To be noted: A549, 48 hours after transfection, relative to control siRNA nc2 = 1.0000. A general note: Real-time PCR tracks product formation cycle by cycle.
Another data set relates to STAT3 gene. The experiment in a line: STAT3 expression after mTOR siRNA and/or STAT3 siRNA transfection of A549, real-time PCR. The format is cell-based, human. The following applies: A549, 48 hours after transfection, relative to control siRNA nc2 = 1.0000.

d = 2'-deoxy (DNA); r = 2'-OH (RNA)

In the case of “siSTAT3: siRNA targeting the only STAT3; SEQ ID NOS: 24 and 25 (chain 1 UGUUCUCUGAGACCCAUGATT; chain 2 UCAUGGGUCUCAGAGAACATT; sugars from the 5' end r19 d2, backbone not given here)”, the mTOR expression level in the data set with mTOR gene came to 1.0507. In the data set on STAT3 gene, this substance returned an STAT3 expression level of 0.6074.
The like results for “simTOR: siRNA targeting the only mTOR; SEQ ID NOs: 22 and 23 (chain 1 GUGGAAACAGGACCCAUGATT; chain 2 UCAUGGGUCCUGUUUCCACTT; sugars from the 5' end r19 d2, backbone not given here)” were, in that order, 0.1980 and 1.0705.

These data come from patent publication US11634712B2, “Nucleic acid simultaneously inhibiting expression of mTOR gene and STAT3 gene” (CURIGIN CO., LTD., priority 2017, dated 2023).
